Experiments:
[1] = Inhibition of DNA-PK (unknown origin) expressed in human HeLa cells; assay type: cell-based
[2] = Antiproliferative activity against human HCT116-MTAP null cells assessed as reduction in cell growth incubated for 72 hrs by MTT assay; assay type: functional, cell-based
[3] = target: Protein arginine N-methyltransferase 5 (Homo sapiens, UniProt O14744); assay: Binding affinity to PRMT5 (unknown origin) assessed as inhibition constant
[4] = target: Serine/threonine-protein kinase ATR (Homo sapiens, UniProt Q13535); assay: Inhibition of human recombinant ATR incubated for 40 mins by fluorescence based analysis
[5] = target: Poly [ADP-ribose] polymerase 1 (Homo sapiens, UniProt P09874); assay: Inhibition of PARP-1 (unknown origin)
[6] = Half life in Sprague-Dawley rat at 20 mg/kg, po by LC-MS/MS analysis; assay type: ADME, organism-based; settings: in vivo
[7] = AUC (0 to t) in Sprague-Dawley rat at 20 mg/kg, po by LC-MS/MS analysis; assay type: ADME, organism-based; settings: in vivo
MV4-11 = assay: Antiproliferative activity against human MV4-11 cells assessed as reduction in cell viability incubated for 72 hrs by MTS assay; assay type: functional, cell-based; settings: MV4-11, 72 h
[8] = target: T1, Serine/threonine-protein kinase Chk1 (Homo sapiens, UniProt O14757); assay: Inhibition of CHK1 (unknown origin)
T1 sequence (O14757 whole entry): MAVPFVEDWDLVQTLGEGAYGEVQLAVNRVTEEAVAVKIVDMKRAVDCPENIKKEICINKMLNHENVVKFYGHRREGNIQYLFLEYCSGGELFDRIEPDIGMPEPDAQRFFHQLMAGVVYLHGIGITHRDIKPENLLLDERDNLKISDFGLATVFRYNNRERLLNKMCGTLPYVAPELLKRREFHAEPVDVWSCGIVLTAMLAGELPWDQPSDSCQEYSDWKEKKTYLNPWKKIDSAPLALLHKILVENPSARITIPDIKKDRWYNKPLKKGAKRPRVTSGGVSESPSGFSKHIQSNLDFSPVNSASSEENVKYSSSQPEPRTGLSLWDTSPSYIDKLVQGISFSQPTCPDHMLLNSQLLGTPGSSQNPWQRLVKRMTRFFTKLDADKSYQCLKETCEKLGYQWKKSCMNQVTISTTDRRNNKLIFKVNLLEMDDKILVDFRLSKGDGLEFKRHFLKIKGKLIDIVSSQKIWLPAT

[9] = target: T2, DNA repair protein RAD51 homolog 1 (Homo sapiens, UniProt Q06609); assay: Inhibition of RAD51 (unknown origin)
T2 sequence (Q06609 whole entry): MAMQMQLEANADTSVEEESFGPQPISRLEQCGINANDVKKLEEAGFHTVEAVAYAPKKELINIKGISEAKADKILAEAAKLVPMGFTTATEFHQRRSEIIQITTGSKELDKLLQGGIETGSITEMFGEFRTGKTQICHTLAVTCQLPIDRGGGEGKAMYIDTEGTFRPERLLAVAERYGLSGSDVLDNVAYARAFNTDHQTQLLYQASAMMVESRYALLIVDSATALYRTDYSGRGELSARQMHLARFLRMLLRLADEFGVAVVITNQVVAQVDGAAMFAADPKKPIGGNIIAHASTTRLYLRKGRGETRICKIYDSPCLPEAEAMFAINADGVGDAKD

[10] = target: Serine/threonine-protein kinase VRK2 (Homo sapiens, UniProt Q86Y07); assay: Inhibition of VRK2 (14 to 335 residues) (unknown origin) extracted from Escherichia coli BL21 (DE3)-R3 cells
[11] = target: Serine-protein kinase ATM (Homo sapiens, UniProt Q13315); assay: Inhibition of ATM (unknown origin)
[12] = target: Serine/threonine-protein kinase mTOR (Homo sapiens, UniProt P42345); assay: Inhibition of human mTOR
MDA-MB-436 = assay: Antiproliferative activity against human MDA-MB-436 cells assessed as reduction in cell viability; assay type: functional, cell-based

Chain of Serine/threonine-protein kinase ATR (Q13535 whole entry): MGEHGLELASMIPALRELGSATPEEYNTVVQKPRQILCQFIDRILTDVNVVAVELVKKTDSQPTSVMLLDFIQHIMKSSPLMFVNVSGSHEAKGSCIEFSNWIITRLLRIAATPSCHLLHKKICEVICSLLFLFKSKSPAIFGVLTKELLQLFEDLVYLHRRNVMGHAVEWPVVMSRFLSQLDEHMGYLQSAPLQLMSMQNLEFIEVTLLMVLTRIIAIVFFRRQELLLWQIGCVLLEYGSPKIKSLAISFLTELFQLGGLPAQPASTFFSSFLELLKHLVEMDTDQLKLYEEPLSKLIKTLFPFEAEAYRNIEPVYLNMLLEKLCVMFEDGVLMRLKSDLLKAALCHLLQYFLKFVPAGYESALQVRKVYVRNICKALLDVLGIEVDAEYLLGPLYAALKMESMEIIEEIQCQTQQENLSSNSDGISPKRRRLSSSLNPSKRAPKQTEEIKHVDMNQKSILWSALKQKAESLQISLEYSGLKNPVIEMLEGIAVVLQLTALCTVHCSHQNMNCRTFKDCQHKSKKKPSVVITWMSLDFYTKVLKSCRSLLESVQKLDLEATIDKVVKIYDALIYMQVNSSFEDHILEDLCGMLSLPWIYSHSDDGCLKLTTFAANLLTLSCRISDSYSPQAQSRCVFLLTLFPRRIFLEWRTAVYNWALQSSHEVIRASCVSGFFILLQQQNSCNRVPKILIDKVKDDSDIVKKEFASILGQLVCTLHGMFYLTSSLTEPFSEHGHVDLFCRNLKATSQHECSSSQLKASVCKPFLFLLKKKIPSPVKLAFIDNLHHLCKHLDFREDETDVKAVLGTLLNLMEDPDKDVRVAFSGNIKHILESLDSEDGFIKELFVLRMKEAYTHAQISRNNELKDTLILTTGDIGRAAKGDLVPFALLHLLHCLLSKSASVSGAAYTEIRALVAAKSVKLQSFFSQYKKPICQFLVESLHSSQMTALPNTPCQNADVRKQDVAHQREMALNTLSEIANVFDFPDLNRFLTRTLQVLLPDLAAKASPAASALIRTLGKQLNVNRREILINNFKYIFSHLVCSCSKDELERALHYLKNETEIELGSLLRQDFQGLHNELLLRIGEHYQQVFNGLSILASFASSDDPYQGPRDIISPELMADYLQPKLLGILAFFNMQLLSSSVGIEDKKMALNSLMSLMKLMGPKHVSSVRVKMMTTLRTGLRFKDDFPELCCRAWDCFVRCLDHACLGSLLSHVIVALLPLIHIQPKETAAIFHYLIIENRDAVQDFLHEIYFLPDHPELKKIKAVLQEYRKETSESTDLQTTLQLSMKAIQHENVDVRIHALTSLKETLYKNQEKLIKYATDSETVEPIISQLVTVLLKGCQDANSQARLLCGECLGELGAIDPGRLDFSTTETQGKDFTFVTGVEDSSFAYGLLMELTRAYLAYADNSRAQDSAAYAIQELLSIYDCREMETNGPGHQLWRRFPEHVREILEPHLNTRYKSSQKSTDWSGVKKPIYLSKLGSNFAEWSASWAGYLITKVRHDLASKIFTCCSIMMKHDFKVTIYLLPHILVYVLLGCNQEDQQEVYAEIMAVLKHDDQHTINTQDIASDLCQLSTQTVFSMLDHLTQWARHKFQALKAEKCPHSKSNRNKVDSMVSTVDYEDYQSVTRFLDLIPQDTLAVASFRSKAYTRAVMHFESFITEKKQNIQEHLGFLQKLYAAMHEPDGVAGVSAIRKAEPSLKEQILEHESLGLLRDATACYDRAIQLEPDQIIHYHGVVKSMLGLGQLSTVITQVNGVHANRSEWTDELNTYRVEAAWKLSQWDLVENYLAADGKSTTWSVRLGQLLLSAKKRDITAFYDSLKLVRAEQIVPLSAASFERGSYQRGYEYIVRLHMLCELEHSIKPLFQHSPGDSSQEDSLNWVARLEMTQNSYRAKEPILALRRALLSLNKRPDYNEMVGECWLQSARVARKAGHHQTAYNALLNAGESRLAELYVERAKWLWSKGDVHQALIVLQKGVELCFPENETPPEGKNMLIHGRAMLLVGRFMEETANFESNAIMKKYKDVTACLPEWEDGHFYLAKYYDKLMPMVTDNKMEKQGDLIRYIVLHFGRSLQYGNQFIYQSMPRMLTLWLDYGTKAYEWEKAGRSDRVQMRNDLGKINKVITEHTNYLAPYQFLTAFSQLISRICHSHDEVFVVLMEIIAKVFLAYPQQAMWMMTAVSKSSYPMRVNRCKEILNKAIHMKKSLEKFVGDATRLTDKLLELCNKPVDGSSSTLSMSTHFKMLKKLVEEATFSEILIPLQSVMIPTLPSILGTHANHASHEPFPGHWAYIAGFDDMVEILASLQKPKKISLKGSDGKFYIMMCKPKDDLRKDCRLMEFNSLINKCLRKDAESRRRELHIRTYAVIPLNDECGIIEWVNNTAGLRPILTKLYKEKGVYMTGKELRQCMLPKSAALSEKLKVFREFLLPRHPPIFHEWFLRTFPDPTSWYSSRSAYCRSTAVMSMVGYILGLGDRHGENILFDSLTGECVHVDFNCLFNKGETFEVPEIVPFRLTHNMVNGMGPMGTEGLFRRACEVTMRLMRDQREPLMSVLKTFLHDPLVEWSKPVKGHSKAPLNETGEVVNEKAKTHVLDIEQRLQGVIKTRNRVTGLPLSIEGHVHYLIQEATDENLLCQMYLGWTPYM
Chain of Poly [ADP-ribose] polymerase 1 (P09874 whole entry): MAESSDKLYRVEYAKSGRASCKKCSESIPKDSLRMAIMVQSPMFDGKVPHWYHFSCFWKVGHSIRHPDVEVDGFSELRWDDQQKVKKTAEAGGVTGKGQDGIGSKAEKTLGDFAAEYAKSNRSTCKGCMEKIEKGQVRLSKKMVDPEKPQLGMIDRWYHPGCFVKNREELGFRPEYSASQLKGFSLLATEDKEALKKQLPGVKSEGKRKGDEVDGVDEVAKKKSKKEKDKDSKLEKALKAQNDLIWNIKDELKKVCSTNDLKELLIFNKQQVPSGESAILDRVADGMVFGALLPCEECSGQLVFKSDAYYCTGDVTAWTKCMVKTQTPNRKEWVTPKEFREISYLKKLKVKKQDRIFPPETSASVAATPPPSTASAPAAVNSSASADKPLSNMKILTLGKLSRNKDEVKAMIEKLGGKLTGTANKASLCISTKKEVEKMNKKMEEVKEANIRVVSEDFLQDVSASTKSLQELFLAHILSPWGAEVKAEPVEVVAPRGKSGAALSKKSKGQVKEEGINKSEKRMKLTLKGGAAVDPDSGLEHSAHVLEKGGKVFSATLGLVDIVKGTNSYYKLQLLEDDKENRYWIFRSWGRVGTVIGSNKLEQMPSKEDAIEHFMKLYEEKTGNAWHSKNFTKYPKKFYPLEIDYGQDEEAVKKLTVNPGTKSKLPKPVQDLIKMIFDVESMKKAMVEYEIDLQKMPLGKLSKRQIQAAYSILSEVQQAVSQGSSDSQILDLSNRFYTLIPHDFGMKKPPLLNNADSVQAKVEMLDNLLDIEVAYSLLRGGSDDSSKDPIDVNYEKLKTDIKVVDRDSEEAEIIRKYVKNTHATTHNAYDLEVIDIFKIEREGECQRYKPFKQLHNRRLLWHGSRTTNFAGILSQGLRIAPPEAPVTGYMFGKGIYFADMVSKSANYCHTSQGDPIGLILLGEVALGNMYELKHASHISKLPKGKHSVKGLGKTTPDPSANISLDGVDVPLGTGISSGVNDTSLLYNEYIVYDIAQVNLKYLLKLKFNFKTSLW
Chain of Protein arginine N-methyltransferase 5 (O14744 whole entry): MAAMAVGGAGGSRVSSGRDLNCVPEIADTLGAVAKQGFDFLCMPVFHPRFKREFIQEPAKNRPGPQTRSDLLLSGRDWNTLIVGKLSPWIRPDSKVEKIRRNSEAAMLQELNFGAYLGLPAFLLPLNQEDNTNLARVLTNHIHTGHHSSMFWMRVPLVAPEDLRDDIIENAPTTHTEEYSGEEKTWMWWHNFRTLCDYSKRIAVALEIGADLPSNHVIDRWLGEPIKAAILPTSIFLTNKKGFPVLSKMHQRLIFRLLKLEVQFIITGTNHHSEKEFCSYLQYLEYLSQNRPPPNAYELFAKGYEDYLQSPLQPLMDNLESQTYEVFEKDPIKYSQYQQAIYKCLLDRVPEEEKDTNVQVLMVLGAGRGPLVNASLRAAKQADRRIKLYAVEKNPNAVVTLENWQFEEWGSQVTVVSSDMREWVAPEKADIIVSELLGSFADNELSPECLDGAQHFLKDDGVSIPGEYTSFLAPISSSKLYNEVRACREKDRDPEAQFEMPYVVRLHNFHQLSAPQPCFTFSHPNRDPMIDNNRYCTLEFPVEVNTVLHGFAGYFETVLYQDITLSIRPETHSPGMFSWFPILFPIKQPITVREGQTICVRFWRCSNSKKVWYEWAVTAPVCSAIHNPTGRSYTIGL
Chain of Serine/threonine-protein kinase VRK2 (Q86Y07 whole entry, the tested form may be a part): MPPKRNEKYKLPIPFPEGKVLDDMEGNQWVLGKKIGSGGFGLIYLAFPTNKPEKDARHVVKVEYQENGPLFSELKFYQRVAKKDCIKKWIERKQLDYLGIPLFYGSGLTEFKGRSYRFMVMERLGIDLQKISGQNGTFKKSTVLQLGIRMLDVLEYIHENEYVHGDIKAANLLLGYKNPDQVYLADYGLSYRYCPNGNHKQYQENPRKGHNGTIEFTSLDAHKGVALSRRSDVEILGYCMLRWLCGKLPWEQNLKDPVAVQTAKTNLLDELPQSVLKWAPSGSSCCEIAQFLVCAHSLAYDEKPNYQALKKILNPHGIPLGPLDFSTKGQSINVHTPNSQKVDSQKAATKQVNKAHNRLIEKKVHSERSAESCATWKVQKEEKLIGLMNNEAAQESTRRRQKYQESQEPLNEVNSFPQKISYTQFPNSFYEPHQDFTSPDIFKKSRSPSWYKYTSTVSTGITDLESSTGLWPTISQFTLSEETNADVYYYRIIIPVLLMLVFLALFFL

In the case of COc1cccc(NC(=O)c2cc(-c3ccc(/C=C4\C(=O)N(c5cccc(C(=O)O)c5)N=C4C)o3)ccc2Cl)c1, the IC50 [1] is reported as 3120 nM.

Cc1cc2cc(C(=O)N(Cc3ccc(C(F)(F)F)cn3)[C@@H]3CCCc4cn[nH]c43)ccc2nc1N gave an IC50 [2] of 10 nM and a Ki [3] of 0.05 nM.

With C[C@@H]1COCCN1c1nc(-c2ccnn2C)c2c(n1)c(-c1ccn[nH]1)nn2C the IC50 [4] was 1 nM.

With Cc1ccoc1C(=O)N1CCCN(C(=O)c2ccc(-c3nc4c(C(N)=O)cccc4[nH]3)cc2)CC1 the IC50 [5] was 22.8 nM.

In the case of COC1/C=C/Cc2cnc3cc(C)c(cn23)Nc2ncc3c(n2)n(c(=O)n3C)CC1 (stereo unspecified), the IC50 [1] is reported as 4 nM.

For Cn1cc(-c2cnc(Nc3ccc(C#N)nc3)nc2N[C@H]2CCCNC2)cn1, the half-life [6] was 5.3 h, the AUCt ([7]; po, 20 mg/kg) was 1370 ng·h/mL and the IC50 (MV4-11) was 35 nM.

Compound Cc1cc2ncc3n2cc1Nc1ncc2c(n1)n(c(=O)n2C)CCCCC3 has an IC50 [1] of 4 nM.

For COc1cccc(NC(=O)c2cc(-c3ccc(CC4C(=O)N(c5cccc(C(=O)O)c5)N=C4C)o3)ccc2Cl)c1 (stereo unspecified), the IC50 [1] was 500 nM.

In the case of Cc1cc(C(N)=O)ccc1Nc1ncc2c(n1)n(C1CCOCC1)c(=O)n2C, the IC50 [1] is reported as 0.08 nM.

Nc1nc2cc(F)c(C(=O)N(Cc3ccc(C(F)(F)F)cn3)C34CC(C3)C4)cc2c2c1COC2 gave an IC50 [2] of 8 nM.

N#Cc1ncc(Nc2ncc(-c3ccccc3)s2)cc1N[C@@H]1CCNC1 showed an IC50 [8] of 4.25 nM and an AUC(0-t) ([7]; Sprague-Dawley) of 10700 ng·h/mL.

With O=c1nc(/C=C/c2cccnc2)n(Cc2ccccc2)c2ccccc12 the IC50 [9] was 4300 nM.

COc1cccc(NC(=O)c2cc(-c3ccc(CC4C(=O)N(c5cccc(C(=O)O)c5)N=C4C(F)(F)F)o3)ccc2Cl)c1 (stereo unspecified) showed an IC50 [1] of 110 nM.

Work on CC(C)CCN1c2nc(Nc3cc(F)c(O)c(F)c3)ncc2N(C)C(=O)[C@@H]1C yielded an IC50 [10] of 196 nM.

C[C@@H]1COC[C@H]2COc3c(nc(-c4ccnc5[nH]ccc45)nc3C(C)(C)C#N)N21 showed an IC50 [4] of 16 nM.

For COc1cccc(NC(=O)c2cc(-c3ccc(CC4C(=O)N(c5cccc(-c6nnn[nH]6)c5)N=C4C)o3)ccc2Cl)c1 (stereo unspecified), the IC50 [1] was 240 nM.

In the case of Cn1c(=O)n2c3ccccc3oc3c(-c4ccc(OCCCN5CCCCC5)nc4)c(F)cc4ncc1c2c43, the IC50 [11] is reported as 0.45 nM.

Work on O=c1nc(/C=C/c2cccnc2)n(Cc2ccc(I)cc2)c2ccccc12 yielded an IC50 [9] of 720 nM.

With C[C@@H]1COCCN1c1cc([C@]2(O)C[C@H]3CC[C@@H](C2)O3)c2cnn(-c3cc[nH]n3)c2n1 [CAMONSERTIB] the IC50 [4] was 1 nM and the IC50 [12] was 120 nM.

For COc1cc2ncn(-c3cc(OCc4ccccc4C(F)(F)F)c(C(N)=O)s3)c2cc1OC [GW843682X], the IC50 [11] was 480 nM.

Work on O=C(c1cc(Cc2n[nH]c(=O)c3ccccc23)ccc1F)N1CCN(C(=O)C2CC2)CC1 [OLAPARIB] yielded an IC50 (MDA-MB-436) of 23900 nM.

— ChEMBL document CHEMBL6127039, “An update on small molecule compounds targeting synthetic lethality for cancer therapy” (Eur J Med Chem, 2024)
